# Reference: patent publication US7795220B2, “Conformationally constrained parathyroid hormones with alpha-helix stabilizers” (The General Hospital Corporation, priority 2003, dated 2010)
# Values joined by “and” are separate entries in the source; they are usually repeats but may differ in a detail not shown here. Equal values may be shown once. Read-outs that look alike come from different tables or passages of the source. Non-standard residues stand in square brackets, D forms with d. Residues, ends and D or L forms follow the SMILES beside them. No end group written: not given here. hArg = N=C(N)NCCCC[C@H](N)C(=O)O; Ac5c = NC1(C(=O)O)CCCC1; Deg = CCC(N)(CC)C(=O)O; Ac3c = NC1(C(=O)O)CC1; Aib = CC(C)(N)C(=O)O
# Key:
# [1] = target: T1, P1R (recombinant P1R chimera) in HKRK-B28 cells (UniProt P25107+P25961, A364S/A509S/A517P/A524T/DEL519-521/E344G/G506A/H528S/I365V/I416T/I429T/K402R/K465R/L320I/M408V/N352H/S511P/S523T/T335G/T421L/T487S/V367L/V433I); experiment: biochemical; type: binding, opposum/rat chimera; settings: for IC50: apparent binding affinity (IC50), inhibition of 125I-rPTH(1-21) analog tracer binding, B28 cells
# T1 construct: the opposum P1R from the N-terminus to the mid region of TM3; the rat P1R from the mid region of TM3 to the C-terminus; expressed in transfected cells
# Description: (§1) Cell Culture. The cell line HKRK-B28 (Takasu, H., et al., J. Bone Miner. Res. 14:11-20 (1999)) was derived from the porcine kidney cell line, LLC-PK1 by stable transfection with plasmid DNA encoding a recombinant P1R chimera comprised of the opposum P1R from the N-terminus to the mid region of TM3 and the rat P1R from the mid region of TM3 to the C-terminus. The surface density of the P1R in these cells is ˜280,000 receptors per cell. The clonal cell line LdelNt-2 was derived from LLC-PK, cells via stable transfection with a plasmid encoding P1R-delNt, a recombinant human PTH-1 receptor construct in which most of the amino-terminal extracellular domain is deleted. These cells, as well as COS-7 cells and SaOS-2-B10 cells, were cultured at […] in T-75 flasks ([…]) in Dulbecco's modified Eagle's medium (DMEM) supplemented with fetal bovine serum (10%), penicillin G (20 units/ml), streptomycin sulfate (20 μg/ml) and amphotericin B (0.05 μg/ml) in a humidified atmosphere containing 5% CO2. Stock solutions of EGTA/trypsin and antibiotics were from GLBCO; fetal bovine serum was from Hyclone Laboratories (Logan, Utah). COS-7 cells sub-cultured in 24-well plates were transfected with plasmid DNA (200 ng per well) encoding the wild-type human P1R or truncated human P1R deleted for residues (24-181) (Shimizu, M., et al., J. Biol. Chem. 275:21836-21843 (2000)) that was purified by cesium chloride/ethidium bromide density gradient centrifugation, and FuGENE 6 transfection reagent (Roche Indianapolis Ind.) according to the manufacturer's recommended procedure. All cells, in 24-well plates, were treated with fresh media and shifted to 33° C. for 12 to 24 h prior to assay.
# Competition Binding. Binding reactions were performed with HKRK-B28 cells or in COS-7 cells in 24-well plates. The cells were rinsed with 0.5 mL of binding buffer, and then treated successively with 100 μL binding buffer, 100 μL of binding buffer containing various amounts of unlabeled competitor ligand, and 100 μL of binding buffer containing ca. 100,000 cpm of ^125I-[Aib^1,3,Nle^8,Gln^10,Har^11,Ala^12,Trp^14,Arg^19,Tyr^21]rPTH(1-21) (SEQ. ID. NO. 36) (ca. 26 fmol; final volume=300 μL). Incubations were 4 to 6 h at 4° C., at which time near equilibrium conditions were attained. Cells were then placed on ice, the binding medium was removed, and the monolayer was rinsed three times with 0.5 mL of cold binding buffer. The cells were subsequently lysed with 0.5 mL 5N NaOH and counted for radioactivity. For each tracer and in each experiment, the non-specific binding was determined as the radioactivity that bound in the presence of the same unlabeled peptide at a concentration of 1 μM, and was ˜1% of total radioactivity added for each tracer. The maximum specific binding (B0) was the total radioactivity bound in the absence of competing ligand, corrected for nonspecific binding, and for each tracer, ranged from 8% to 20% of the total radioactivity added. Nonlinear regression was used to calculate binding IC50 values (see below). Scatchard transformations of homologous competition binding data derived from studies with 26 fmol of ^125I-[Aib^1,3,Nle^8,Gln^10,Har^11,Ala^12,Trp^14, Arg^19,Tyr^21]rPTH(1-21) (SEQ. ID. NO. 36) were employed for estimations of apparent equilibrium dissociation constant (kDapps) and total number of ligand binding sites (Bmax), assuming a single class of binding sites and equal affinities of the iodinated and non iodinated ligand.
# Data Calculation. Calculations were performed using Microsoft® Excel. Nonlinear regression analyses of binding and cAMP dose-response data were performed using the four-parameter equation: yp=Min+[(Max−Min)/(1+(IC50/x)^slope)]. The Excel Solver function was utilized for parameter optimization, as described previously (Carter, P. H., et al., Endocrinology 140: 4972-4981 (1999); Bowen, W. P., and Jerman, J. C., Trends in Pharmacol. Sci. 16: 413-417 (1995)). […]
# [2] = system: P1R (recombinant P1R chimera) in HKRK-B28 cells; experiment: cAMP stimulation in HKRK-B28 cells; type: cell-based, opposum/rat chimera; settings: for cAMP signaling potency diminished relative to parent [M]PTH(1-14) / cAMP-stimulating potency higher than that of parent [M]PTH(1-14): relative to parent [M]PTH(1-14)
# Description: as §1
# cAMP Stimulation. Stimulation of cells with peptide analogs was performed in 24-well plates. Cells were rinsed with 0.5 mL of binding buffer (50 mM Tris-HCl, 100 mM NaCl, 5 mM KCl, 2 mM CaCl2, 5% heat-inactivated horse serum, 0.5% fetal bovine serum, adjusted to pH 7.5 with HCl) and treated with 200 μL of cAMP assay buffer (Delbecco's modified Eagle's medium containing 2 mM 3-isobutyl-1-methylxanthine, 1 mg/mL bovine serum albumin, 35 mM Hepes-NaOH, pH 7.4) and 100 μL of binding buffer containing varying amounts of peptide analog (final volume=300 μL). The medium was removed after incubation for 30 to 60 minutes at room temperature, and the cells were frozen on dry ice, lysed with 0.5 mL 50 mM HCl, and refrozen ([…]). The cAMP content of the diluted lysate was determined by radioimmunoassay. The EC50 response values were calculated using nonlinear regression (see below).
# Data Calculation. Calculations were performed using Microsoft® Excel. Nonlinear regression analyses of binding and cAMP dose-response data were performed using the four-parameter equation: yp=Min+[(Max−Min)/(1+(IC50/x)^slope)]. The Excel Solver function was utilized for parameter optimization, as described previously (Carter, P. H., et al., Endocrinology 140: 4972-4981 (1999); Bowen, W. P., and Jerman, J. C., Trends in Pharmacol. Sci. 16: 413-417 (1995)). Differences between paired data sets were statistically evaluated using a one-tailed Student's t-test, assuming unequal variances for the two sets.
# [3] = relative to parent [M]PTH(1-14)
# T1 sequence (P25107+P25961 fused with the stated changes): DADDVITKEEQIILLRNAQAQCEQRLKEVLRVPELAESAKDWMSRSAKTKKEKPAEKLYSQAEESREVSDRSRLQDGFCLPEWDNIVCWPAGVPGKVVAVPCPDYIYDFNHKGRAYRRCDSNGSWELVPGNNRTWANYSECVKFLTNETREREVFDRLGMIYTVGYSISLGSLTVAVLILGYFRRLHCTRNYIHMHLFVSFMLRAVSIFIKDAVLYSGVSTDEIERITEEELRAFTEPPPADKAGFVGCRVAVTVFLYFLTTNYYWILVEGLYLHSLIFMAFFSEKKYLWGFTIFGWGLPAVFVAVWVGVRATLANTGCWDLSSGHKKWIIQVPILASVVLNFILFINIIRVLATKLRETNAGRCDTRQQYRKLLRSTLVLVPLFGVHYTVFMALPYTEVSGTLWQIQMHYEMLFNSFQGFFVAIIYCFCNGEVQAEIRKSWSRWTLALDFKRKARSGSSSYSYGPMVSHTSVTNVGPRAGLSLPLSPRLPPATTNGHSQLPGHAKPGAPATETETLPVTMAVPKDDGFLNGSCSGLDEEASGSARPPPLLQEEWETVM
compound,measurement,setting,value
CC[C@H](C)[C@H](NC(=O)[C@H](CCC(=O)O)NC(=O)C1(NC(=O)[C@@H](NC(=O)[C@H](C)N)C(C)C)CCCC1)C(=O)N[C@@H](CCC(N)=O)C(=O)N[C@@H](CC(C)C)C(=O)N[C@@H](CCSC)C(=O)N[C@@H](Cc1c[nH]cn1)C(=O)N[C@@H](CCC(N)=O)C(=O)N[C@@H](CCCCNC(=N)N)C(=O)N[C@@H](C)C(=O)N[C@@H](CCCCN)C(=O)N[C@@H](Cc1c[nH]c2ccccc12)C(N)=O [Ac5c^3] (H-AV[Ac5c]EIQLMHQ[hArg]AKW-NH2),IC50,[1],~3000 nM
CC[C@H](C)[C@H](NC(=O)[C@H](CCC(=O)O)NC(=O)C(CC)(CC)NC(=O)[C@@H](NC(=O)[C@H](C)N)C(C)C)C(=O)N[C@@H](CCC(N)=O)C(=O)N[C@@H](CC(C)C)C(=O)N[C@@H](CCSC)C(=O)N[C@@H](Cc1c[nH]cn1)C(=O)N[C@@H](CCC(N)=O)C(=O)N[C@@H](CCCCNC(=N)N)C(=O)N[C@@H](C)C(=O)N[C@@H](CCCCN)C(=O)N[C@@H](Cc1c[nH]c2ccccc12)C(N)=O [Deg-3] (H-AV[Deg]EIQLMHQ[hArg]AKW-NH2),cAMP signaling potency diminished relative to parent [M]PTH(1-14),[2],approximately 10 fold
same,cAMP signaling potency diminished relative to parent [M]PTH(1-14),[2]; listed as Deg^3,~40 fold
same,IC50,[1],~3000 nM
same,P1R binding affinity (in words),[1],little or no effect on binding affinity
same,binding affinity higher than that of parent [M]PTH(1-14),[1]; [3],around 1.5 fold
"CC[C@H](C)[C@H](NC(=O)[C@H](CCC(=O)O)NC(=O)C(C)(C)NC(=O)[C@@H](NC(=O)C1(N)CCCC1)C(C)C)C(=O)N[C@@H](CCC(N)=O)C(=O)N[C@@H](CC(C)C)C(=O)N[C@@H](CCSC)C(=O)N[C@@H](Cc1c[nH]cn1)C(=O)N[C@@H](CCC(N)=O)C(N)=O [[Ac5c^1,Aib^3,M]PTH(1-10), [Ac5c^1,Aib^3,Gln^10]PTH(1-10)NH2] (H-[Ac5c]V[Aib]EIQLMHQ-NH2)",increase in cAMP levels relative to basal,"[2]; HKRK-B28 cells, peptide at 10 μM",33 fold
same,EC50,"[2]; HKRK-B28 cells, read-out: cAMP EC50 estimated from dose-response analysis",~3000 nM
same,cAMP agonist activity / signaling potency (in words),[2],clear cAMP response
same,cAMP agonist activity / signaling potency (in words),"[2]; Aib^3, Gln^10]PTH(1-10)","fall cAMP agonist, albeit with micromolar potency"
same,inhibition of tracer radioligand binding,"[1]; concentrations as high as 1×10^−4M, HKRK-B28 cells",neither peptide inhibited the binding
"CC[C@H](C)[C@H](NC(=O)[C@H](CCC(=O)O)NC(=O)[C@H](C)NC(=O)[C@@H](NC(=O)[C@H](C)N)C(C)C)C(=O)N[C@@H](CCC(N)=O)C(=O)N[C@@H](CC(C)C)C(=O)N[C@@H](CCSC)C(=O)N[C@@H](Cc1c[nH]cn1)C(=O)N[C@@H](CCC(N)=O)C(=O)N[C@@H](CCCCNC(=N)N)C(=O)N[C@@H](C)C(=O)N[C@@H](CCCCN)C(=O)N[C@@H](Cc1c[nH]c2ccccc12)C(N)=O [[M]PTH(1-14), [Ala^1,3,12,Gln^10,Har^11,Trp^14]PTH(1-14)NH2, reference compound] (H-AVAEIQLMHQ[hArg]AKW-NH2)",EC50,"[2]; HKRK-B28 cells, intracellular cAMP accumulation, listed as [Ala^1,3,12,Gln^10,Har^11,Trp^14]PTH(1-14)NH2, read-out: cAMP-stimulating potency (EC50)",220 ± 80 nM
same,EC50,"[2]; HKRK-B28 cells, intracellular cAMP accumulation, read-out: cAMP-stimulating potency (EC50)",200 nM
same,maximum cAMP response,"[2]; HKRK-B28 cells, n=7",225±21 picomoles of cAMP per well
"CC[C@H](C)[C@H](NC(=O)[C@H](CCC(=O)O)NC(=O)[C@H](C)NC(=O)[C@@H](NC(=O)[C@H](C)N)C(C)C)C(=O)N[C@@H](CCC(N)=O)C(=O)N[C@@H](CC(C)C)C(=O)N[C@@H](CCSC)C(=O)N[C@@H](Cc1cnc[nH]1)C(=O)N[C@@H](CCC(N)=O)C(=O)N[C@@H](CCCCN=C(N)N)C(=O)N[C@@H](C)C(=O)N[C@@H](CCCCN)C(=O)N[C@@H](Cc1c[nH]c2ccccc12)C(N)=O [[M]PTH(1-14), [Ala^1,3,12,Gln^10,Har^11,Trp^14]PTH(1-14)NH2, reference compound] (H-AVAEIQLMHQ[hArg]AKW-NH2)",IC50,[1],~3000 nM and 600 nM
Ac3c-3: parent [M]PTH(1-14) analog in which alanine-3 was substituted with 1-aminocyclopropane-1-carboxylic acid (Ac3c),cAMP-stimulating potency higher than that of parent [M]PTH(1-14),[2],< two
same,binding affinity lower than that of parent [M]PTH(1-14),[1]; [3],approximately 10 fold
Ac5c-3: parent [M]PTH(1-14) analog in which alanine-3 was substituted with 1-aminocyclopentane-1-carboxylic acid (Ac5c),cAMP-stimulating potency higher than that of parent [M]PTH(1-14),[2],< two
same,P1R binding affinity (in words),[1],little or no effect on binding affinity
"[Ac3c^1,3,Gln^10,Har^11,Ala^12,Trp^14]PTH(1-14)NH2 ([Ac3c]V[Ac3c]EIQLMHQ[hArg]AKW-NH2) [[Ac3c^1,3,M]PTH(1-14)]",cAMP agonist activity / signaling potency (in words),[2],comparable to the parent peptide
same,P1R binding affinity (in words),[1],comparable to the parent peptide
"[Aib^1,3,Gln^10]PTH(1-10)NH2 ([Aib]V[Aib]EIQLMHQ-NH2; N-terminus assumed; SMILES CC[C@H](C)[C@H](NC(=O)[C@H](CCC(=O)O)NC(=O)C(C)(C)NC(=O)[C@@H](NC(=O)C(C)(C)N)C(C)C)C(=O)N[C@@H](CCC(N)=O)C(=O)N[C@@H](CC(C)C)C(=O)N[C@@H](CCSC)C(=O)N[C@@H](Cc1c[nH]cn1)C(=O)N[C@@H](CCC(N)=O)C(N)=O) [ID; NO; 35]",increase in cAMP levels relative to basal,"[2]; HKRK-B28 cells, peptide at 1×10^−4M",two
same,activity / cAMP response in cell-based assays (in words),[2]; P1R-transfected cells,measurable cAMP responses can be detected
native PTH(1-9): native PTH(1-9) (SEQ. ID. NO. 33) (SVSEIQLMH-NH2) [reference compound],cAMP agonist activity at single high concentration (in words),[2]; peptide at 10^−4M,inactive
